Experimental findings from patent US20030138946A1 are described below.

Ends that are not written are not given here.

In assay [1] the target is T1, K^bsol (soluble H-2 K^b with murine β-2 microglobulin) (Mus musculus, UniProt P01901).
T1 construct: The cDNAs encoding K^b α1α2α3 domains (274 residues) and murine β-2 microglobulin (99 residues); made in house; host or cells: Drosophila S2/M3 cells, purified from culture supernatant
T1 sequence (P01901 22-295): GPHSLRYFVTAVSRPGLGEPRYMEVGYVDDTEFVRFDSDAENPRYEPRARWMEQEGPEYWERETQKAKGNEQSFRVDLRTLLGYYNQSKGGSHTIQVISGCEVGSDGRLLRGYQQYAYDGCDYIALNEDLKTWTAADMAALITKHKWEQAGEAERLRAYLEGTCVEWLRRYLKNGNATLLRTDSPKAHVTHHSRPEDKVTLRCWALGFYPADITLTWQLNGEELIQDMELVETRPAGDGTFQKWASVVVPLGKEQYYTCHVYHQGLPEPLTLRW
T1 sequence (P01887 21-119 partner): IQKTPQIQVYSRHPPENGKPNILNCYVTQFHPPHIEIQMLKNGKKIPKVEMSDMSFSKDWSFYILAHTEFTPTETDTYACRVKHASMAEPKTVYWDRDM
In kind it is binding.

In a further assay the test system is B3/CD8 T-cell hybridoma. In words: Antigen presentation assay with B3/CD8 T-cell hybridoma (IL-2 via CTLL 3H thymidine). The class given is cell-based, murine. Conditions: peptide added to culture medium or protein osmotically loaded. The procedure:
Osmotic loading of SC2 and 3T3 cells with ovalbumin protein was carried out as described by Moore, et al., Cell 54: 777-785 (1988). The assay procedure is as follows. In a 96-well dish, 1×10^5 Drosophila cells (with or without peptide/protein loaded) or 3T3 cells were cocultured with 1×10^5 B3/CD8 T-cell hybridoma cells in 200 μl of RPMI media supplemented with 10% fetal bovine serum. After 24 hours of incubation, 100 μl of the supernatant from these cultures was added to 100 μl of RPMI containing 5,000 CTLL cells. The cells were cocultured for 24 hours at 37° C. when 1 uCi of ^3H thymidine (Amersham) was added. After a further incubation of 15 hours at 37° C., the incorporation of radiolabel into the CTLL cells was determined by scintillation counting.
Assays conducted with murine MHC also verified that the insect cells are capable of loading peptide onto the Class I molecules. Cells expressing as few as 200-500 MHC molecules containing a particular antigen can be detected by a T-cell. […] Upon antigenic stimulation, B3/CD8 produces IL-2, measured by ^3H thymidine incorporation in IL-2-dependent T-cell line CTLL (Gillis, et al., J. Immunol. 120: 2027 91978)). Thus, by measuring the amount of IL-2 produced, one can assay for T-cell recognition. […]

Turning to EQLESIINFEKLTEWTSSNVMEER [OVA-24], the “affinity lower than that of OVA-8” value in assay [1] was “more than 10,000 fold”. Besides, in the assay with B3/CD8 T-cell hybridoma, the “T-cell recognition (IL-2 response) of K^b Drosophila cells” value is given as “responded well”.
